In patent publication US10822376B2, “Biologically active peptides” (Baxalta Incorporated, priority 2008, dated 2020):
Where a SMILES comes first, the peptide text is derived from it. Where no end group is shown, it is not given here. [ ]: non-standard residue; d: D form.

Assays:
[1] = test system: FVIII-inhibited human normal plasma; assay: Defined Fibrin Deposition Assay (clotting time); type: biochemical; conditions: for Activity in the Defined Fibrin Deposition Assay: summary
Protocol: Another suitable assay to determine procoagulant activity, and particularly FVIII equivalent activity or FVIII inhibitor bypassing activity, is the Defined Fibrin Deposition Assay as described below. […] This assay is particularly useful for determining coagulation FVIII activity because it is conducted in the presence of FVIII-depleted or inhibited plasma.
The Defined Fibrin Deposition Assay is performed as follows. FVIII activity of human citrated plasma (Baxter AG) is first inhibited by incubating (2 hours, 37° C.) 100 μl of human normal plasma with 25 μl heat inactivated anti-human FVIII plasma (300 BU/ml, 6 hours incubated at 56° C.) raised in goat. For each sample to be tested, 125 μl of this FVIII-inhibited human normal plasma is transferred to a pre-warmed cuvette and a 75 μl dilution of a test compound or FEIBA reference standard (Baxter AG) is added. The dilutions of test compound or FEIBA reference standard contain 50 mM imidazole, 100 mM NaCl and 10 mg/ml human serum albumin (Sigma) pH 7.4. As a trigger and for providing procoagulant surfaces 100 μl of a mix of human factor XIa (3.13 nM, Enzyme Research Laboratories) and phospholipid (PL) vesicles (Phosphatidylcholine/Phosphatidylserine 60%/40%, 30 μM; Avanti Polar Lipids) in 50 mM Imidazole, 100 mM NaCl, 10 mg/ml human serum albumin (Sigma) pH 7.4 is included. After incubating for three minutes at 37° C. the coagulation reaction is started by adding 100 μl of 25 mM CaCl2. Clot formation is monitored by a coagulometer (KC10A, Amelung, Germany). In brief, each cuvette rotates slowly above the magnetic detection device and contains a small magnetic metallic ball. Whilst the plasma components remain in solution, the ball sits at the bottom of the cuvette. Over time, a clot begins to form, such that the ball starts to rotate with the developing clot in the rotating cuvette. The “clotting time” is recorded and is defined as the time from addition of the CaCl2) to the time that the developing clot begins to rotate the metallic ball. A standard curve for FEIBA reference standard dilutions is calculated by linear regression of logarithmic FEIBA concentrations (x-axis) against the clotting time (y-axis). Based on the clotting time of each compound concentration FEIBA equivalent activities are calculated according to this standard curve.
Thus, where a concentration of 100 μM is given, the actual concentration in the final assay volume in 25 μM.
Various peptides were tested for the ability to stimulate fibrin deposition in the Defined Fibrin Deposition Assay as described in the specific description.

HERG channel = HERG channel (Homo sapiens, UniProt Q12809); assay: HERG inhibition, patch clamp assay; conditions: patch clamp assay
Chain of HERG channel (Q12809 whole entry): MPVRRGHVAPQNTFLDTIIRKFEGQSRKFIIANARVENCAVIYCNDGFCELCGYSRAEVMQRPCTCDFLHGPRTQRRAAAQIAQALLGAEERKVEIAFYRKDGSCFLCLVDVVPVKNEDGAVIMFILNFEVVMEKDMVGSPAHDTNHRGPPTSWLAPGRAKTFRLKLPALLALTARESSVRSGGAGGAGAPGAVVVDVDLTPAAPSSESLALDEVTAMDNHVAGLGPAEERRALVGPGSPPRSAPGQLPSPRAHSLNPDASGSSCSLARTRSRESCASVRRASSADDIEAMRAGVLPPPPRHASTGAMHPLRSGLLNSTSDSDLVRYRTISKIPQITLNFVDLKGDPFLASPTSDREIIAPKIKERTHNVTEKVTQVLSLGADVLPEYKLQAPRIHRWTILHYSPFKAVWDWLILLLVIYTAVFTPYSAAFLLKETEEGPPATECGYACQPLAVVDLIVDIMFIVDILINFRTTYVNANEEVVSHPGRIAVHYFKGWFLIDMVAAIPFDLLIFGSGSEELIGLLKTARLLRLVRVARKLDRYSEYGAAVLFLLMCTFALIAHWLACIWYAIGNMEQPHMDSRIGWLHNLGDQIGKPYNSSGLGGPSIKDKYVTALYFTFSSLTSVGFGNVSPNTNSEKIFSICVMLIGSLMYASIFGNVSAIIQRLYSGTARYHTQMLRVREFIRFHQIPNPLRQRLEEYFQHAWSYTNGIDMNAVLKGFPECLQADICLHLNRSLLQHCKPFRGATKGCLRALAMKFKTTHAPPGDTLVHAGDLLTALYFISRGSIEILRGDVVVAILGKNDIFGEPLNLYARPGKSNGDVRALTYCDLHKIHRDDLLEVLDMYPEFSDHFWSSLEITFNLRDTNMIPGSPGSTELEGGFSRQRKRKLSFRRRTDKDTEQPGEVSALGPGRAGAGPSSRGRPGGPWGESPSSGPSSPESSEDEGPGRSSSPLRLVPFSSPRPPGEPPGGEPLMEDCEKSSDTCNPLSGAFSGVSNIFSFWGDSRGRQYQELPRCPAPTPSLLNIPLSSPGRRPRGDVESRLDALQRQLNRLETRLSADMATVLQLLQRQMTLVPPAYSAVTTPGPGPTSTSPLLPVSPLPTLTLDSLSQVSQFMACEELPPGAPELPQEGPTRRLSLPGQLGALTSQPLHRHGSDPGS
Protocol: QT prolongation is assessed by HERG inhibition measured by patch-clamp techniques or Rb^+ efflux.
For rigorous characterization of HERG inhibition the patch clamp assay is applied (Cerep, France, Catalog ref. 900-36). […] The test compounds (10 mM stock solutions) were dissolved in dimethylsulfoxide (DMSO). The solutions at 1 μM contained 0.01% DMSO.

C57BI/6 mice = assay: Acute toxicology in mice; type: in vivo, mouse; conditions: 60 minutes following administration; for Max dose within toxicity category: Severe toxicity (one of the animals died within one hour) / Max dose within toxicity category: Some toxicity (ataxy or catalepsy, no deaths): i.v.
Protocol: Toxicology studies involved monitoring of attitude changes due to toxic effects immediately after application and twice daily; monitoring of body weight; histopathology of brain, heart, kidney, liver, lung. Experiments were performed in C57131/6 mice.
C57BI/6 mice weighing 18-20 g were administered with compounds in a suitable vehicle i.v. in the tail vein or i.p. or s.c at 10 ml/kg. Quantities of the compounds administered were in the range of 0.075 to 125 mg/kg (i.v.), 15-125 mg/kg (i.p.) and 125 mg/kg (s.c.). There were four mice per group. Attitude changes due to toxic effects were monitored immediately after administration of the compound and for 60 minutes thereafter. Body weight was monitored for five days after administration. At day 5 after administration, mice were culled and autopsy performed. Brain, heart, kidney, liver, lung and spleen were biopsied.
In the above table, the maximum dose tested giving rise to no detected toxicity, some toxicity or severe toxicity over the period of 60 minutes following administration is reported. “No detected toxicity” indicates no acute toxic observations.

in vitro [2] = type: in vitro ADME; conditions: mouse, microsomes, pH 7.4
Protocol: Tests were used to determine the stability of compounds in microsomal preparations of human or animal origin. The microsomal stability is measured either in assays provided by Cerep (France, Catalog ref. 900-8h) or by the protocol described below. […] All wells must be carefully mixed to ensure a homogenous suspension before the next steps. 75 μl samples (duplicates) at t=0 minutes are taken for each compound. The plate is sealed and returned to the water bath/thermomixer for 30 minutes. The test compounds/standards are extracted by addition of 200 μl methanol, also including an internal standard. […] The samples are centrifuged at 1300 g for 10 min at 4° C. 200 μl of the supernatant is transferred into a 96-well plate with 10 μl DMSO per well. Compound stability is measured by HPLC-MS analysis (triplicates). The same procedure is repeated after 30 min. […] The signal to noise ratio for all peaks must be 5:1 or better. The ratio AUCanalyte: AUCstandard at the different timepoints must be used. The calculated stability for the control compound must fall in a certain range to validate the assay.

in vivo = conditions: C57BL/6, mouse
Protocol: Pharmacokinetics of compounds were tested in C57BI/6 mice or Wistar rats at 1-30 mg/kg. Compound concentrations in the blood stream were monitored at appropriate intervals using LC-MS.
Pharmacokinetic studies were performed to monitor compound concentrations in plasma following i.v., i.p. or s.c. administration. Studies were conducted in C57BI/6 mice weighing approximately 20 g.
Peptide concentrations in the plasma were analysed by HPLC-MS on a Surveyor HPLC combined with mass spectrometer LCQ classic or Advantage (all Thermo Electron, US) equipped with an ESI-source. All HPLC experiments were carried out on a Phenomenex C-18 Luna column (50 mm×2.0 mm, 5 μl injection volume) using a linear gradient: eluent A 0.05% trifluoracetic acid (TFA) in water; eluent B 0.05% TFA in acetonitrile; flow rate 0.3 mL/min in 10 min. […] The internal standard is prepared as a 0.1 μg/ml solution in 100% methanol. 50 μl plasma and 50 μl internal standard are mixed. 100 μl methanol is added and mixed thoroughly. After 30 min incubation on ice the vial is centrifuged for 15 min at 4° C. […] 150 μl of the supernatant are transferred into the HPLC vial

in vitro [3] = conditions: human, plasma
Protocol: Half-life of compounds in human or mouse plasma, or percentage of compound remaining after an incubation in human or mouse plasma, is determined as follows. In the experimental procedure, test compound concentrations are 5 μM, prepared from test compound stock solutions of 10 mM in DMSO. Propantheline is used as a standard. […] All of the samples are incubated in a water bath at 37° C. […] After a chosen duration of incubation (generally at t=60 min) each sample is mixed with a further 500 μl acetonitrile. The samples are mixed on a vortex mixer for 30 s and placed on ice for 10 min and collected for centrifugation. Samples are centrifuged at 20 000 g for 10 min at 4° C. 500 μl supernatant is transferred into a new 1.5 ml Eppendorf tube and an equal volume of acetonitrile is added. The sample is mixed again for 30 s using a vortex mixer. After a second centrifugation step (20 000 g, 10 min, 4° C.) 250 μl of the supernatant is transferred into HPLC glass vials for HPLC-MS analysis. Conditions for performing HPLC are as follows: Injection-volume is set to 20 μl. Temperature is set to 25° C. A linear gradient from 95:5 to 5:95 water:acetonitrile both containing 0:05% trifluoroacetic acid (TFA) (v/v) is applied at a flow rate of 0.3 ml/min for 10 min. The PDA-detector is scanning from 210-400 nm.

FIX−/− mice = assay: Tail clip assay in FIX−/− mice (blood loss, survival); type: in vivo, mouse
in vitro [4] = conditions: human, pH 7.4
in vitro [5] = conditions: mouse, pH 7.4
mouse serum albumin = mouse serum albumin (Mus musculus, UniProt P07724); assay: in vitro; conditions: pH 7.4
Chain of mouse serum albumin (P07724 25-608): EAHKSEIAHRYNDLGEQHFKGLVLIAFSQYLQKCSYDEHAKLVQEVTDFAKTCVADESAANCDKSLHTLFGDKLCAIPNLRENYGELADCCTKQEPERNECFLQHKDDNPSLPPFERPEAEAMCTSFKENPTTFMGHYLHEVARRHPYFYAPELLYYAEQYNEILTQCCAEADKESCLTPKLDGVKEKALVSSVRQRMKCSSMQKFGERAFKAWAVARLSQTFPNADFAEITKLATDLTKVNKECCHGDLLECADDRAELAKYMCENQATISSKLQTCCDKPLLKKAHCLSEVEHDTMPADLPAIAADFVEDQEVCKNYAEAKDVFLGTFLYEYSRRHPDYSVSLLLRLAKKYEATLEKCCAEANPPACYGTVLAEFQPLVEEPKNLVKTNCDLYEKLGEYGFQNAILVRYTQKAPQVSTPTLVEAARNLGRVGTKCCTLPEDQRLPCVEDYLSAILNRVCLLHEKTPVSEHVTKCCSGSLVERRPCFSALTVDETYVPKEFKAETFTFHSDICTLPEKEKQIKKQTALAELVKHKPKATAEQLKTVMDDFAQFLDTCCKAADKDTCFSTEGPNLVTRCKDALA

Row | Compound | FEIBA EU (from clotting time) ([1]; compound 12.5 μM) | FEIBA EU (from clotting time) ([1]; compound 25 μM) | Activity in the Defined Fibrin Deposition Assay [1] | Classification as HERG-channel blocker (potency ranking of Roche et al.) (HERG channel) | Max dose within toxicity category: Severe toxicity (one of the animals died within one hour) (C57BI/6 mice) | remaining at 0.5 h, 1 μM (in vitro [2]) | level at 5 min (in vivo; ip) | level at 20 min (in vivo; ip) | level at 40 min (in vivo; ip) | level at 1 h (in vivo; ip) | level at 80 min (in vivo; ip) | level at 100 min (in vivo; ip) | level at 5 min (in vivo; iv) | level at 10 min (in vivo; iv) | level at 0.25 h (in vivo; iv) | level at 20 min (in vivo; iv) | level at 25 min (in vivo; iv) | level at 0.5 h (in vivo; iv) | remaining at 0.5 h, 5 μM (in vitro [3]) | FEIBA EU (from clotting time) ([1]; compound 50 μM) | also measured
1 | CC[C@@H](C)[C@@H](NC(=O)[C@@H](CS)NC(C)=O)C(=O)N[C@H](CCSC)C(=O)N[C@H](Cc1ccccc1)C(=O)N[C@H](Cc1c[nH]c2ccccc12)C(=O)N[C@H](Cc1ccc(O)cc1)C(=O)N[C@H](CC(=O)O)C(=O)N[C@H](CCC(=O)O)C(=O)N[C@H](Cc1ccc(O)cc1)C(=O)N[C@H](CCC(=O)O)C(N)=O [Peptide B03, Ac-cimfwydeye-NH2] (Ac-[dC][dI][dM][dF][dW][dY][dD][dE][dY][dE]-NH2) | 291 mU/ml | 325 mU/ml | possess activity | high potency | 15 mg/kg | – | – | – | – | – | – | – | – | – | – | – | – | – | – | – | –
2 | Ac-PMKFDVWDLYFEIVW-NH2 [Peptide A02] | – | – | – | – | – | 45% | 273 ng/mL | 315 ng/mL | 289 ng/mL | 612 ng/mL | 99 ng/mL | 176 ng/mL | 11600 ng/mL | 7260 ng/mL | 3180 ng/mL | 2740 ng/mL | 1440 ng/mL | 1310 ng/mL | 84% | – | –
3 | Ac-RMKFDVWDLYFEIVW-NH2 [Peptide A01] | – | 80 mU/ml | possess activity | low-potency | – | 30% | – | – | – | – | – | – | 673 ng/mL | 352 ng/mL | 454 ng/mL | 145 ng/mL | 282 ng/mL | 115 ng/mL | 58% | 127 mU/ml | FEIBA EU (from clotting time) ([1]; compound 100 μM): 145 mU/ml; Survival vs vehicle alone (FIX−/− mice; 20 mg/kg i.v.): no significant difference; Mean volume of blood loss following tail clip compared to vehicle control (FIX−/− mice; 20 mg/kg i.v. five minutes before tail clip, any time points): not significantly different; Effect in FIX−/− mice (FIX−/− mice; conclusion): no effect; recovery at 6 h, 5 μM (in vitro [4]): > 88.6%; fraction unbound at 6 h, 5 μM (in vitro [4]; plasma): < 0.017; recovery at 6 h, 5 μM (in vitro [5]): > 73.3%; fraction unbound at 6 h, 5 μM (in vitro [5]; plasma): < 0.008; fraction unbound at 6 h, 5 μM (mouse serum albumin): < 0.003; recovery at 6 h, 5 μM (mouse serum albumin): > 103%
4 | Ac-WDLYFEIVW-NH2 [Peptide A05] | – | 193 mU/ml | possess activity | low-potency | 15 mg/kg | – | 119 ng/mL | 165 ng/mL | 185 ng/mL | 130 ng/mL | 49 ng/mL | 50 ng/mL | 2600 ng/mL | 2040 ng/mL | 173 ng/mL | 101 ng/mL | 23 ng/mL | – | 93% | 219 mU/ml | FEIBA EU (from clotting time) ([1]; compound 10 μM): 119 mU/ml; Max dose within toxicity category: Some toxicity (ataxy or catalepsy, no deaths) (C57BI/6 mice): 1.5 mg/kg
5 | Ac-WDLYFEIVWE [Peptide A06] | 232 mU/ml | 168 mU/ml | possess activity | – | 25 mg/kg | 49% | 6440 ng/mL | 7770 ng/mL | 547 ng/mL | 5800 ng/mL | 4060 ng/mL | 3020 ng/mL | 50000 ng/mL | 32600 ng/mL | 21000 ng/mL | 15600 ng/mL | 11300 ng/mL | 7790 ng/mL | 98% | – | Max dose within toxicity category: Some toxicity (ataxy or catalepsy, no deaths) (C57BI/6 mice): 5 mg/kg
6 | H-ERMEFDVWDLYFEIVW-NH2 [Peptide A09] | – | – | – | – | – | 23% | 34 ng/mL | 67 ng/mL | 60 ng/mL | 129 ng/mL | 74 ng/mL | 68 ng/mL | 350 ng/mL | 184 ng/mL | 109 ng/mL | 119 ng/mL | 64 ng/mL | 80 ng/mL | 67% | – | Max dose within toxicity category: No detected toxicity (C57BI/6 mice; i.p.): 15 mg/kg
